Where two headings read alike, the source gives them in different places. Blank lines part the entries; values can stand above or below the compound they belong to.
Experiments:
[1] = system: Caco-2 cell monolayer; assay: Caco-2 cell monolayer transmembrane transport (unidirectional and bidirectional); conditions: for Papp (*10^−6)A→B: Caco-2, A→B; for Papp (*10^−6)A→B / Papp (*10^−6)B→A: 90 min incubation; for Papp (*10^−6)B→A: Caco-2, B→A; for Papp (B→A)/Papp (A→B): Caco-2 efflux ratio, >2 suggests efflux transporter
Procedure: (§2) Wherein dQ is an accumulated penetration amount of a drug receiving pond with a measure unit pmol; dt is incubation time with a measure unit min; A is a diffusion area with a measure unit cm^2; C0 is an initial administration concentration of an administrating pond with a measure unit μmol. L^−1; Papp has a measure unit cm/s.
(§3) An evaluation objective of the bidirectional transport is to preliminary observe that the transmembrane transport of the object to be tested has active transport procedure mediated by an efflux transporter.

[2] = system: SUP-B15; assay: Inhibition of cell proliferation, CTG method, 72 hours; assay type: cell-based; conditions: SUP-B15 cells
Procedure: (§1) Cells are cultured under a complete culture medium; when cells are attached to the wall, drug of different concentrations is added in each tumor cell line for treatment, and a positive control, a blank control and a solvent control are set. Cells are incubated for 72 hours and then CTG method is used for detection.

[3] = system: K562; assay: as above; assay type: cell-based; conditions: K562 cells
Procedure: as §1

[4] = system: PC-3; assay: as above; assay type: cell-based; conditions: PC-3 cells
Procedure: as §1

[5] = system: KU812; assay: as above; assay type: cell-based; conditions: KU812 cells
Procedure: as §1

[6] = Caco-2 cell monolayer transmembrane transport (unidirectional and bidirectional); conditions: human, Caco-2
Procedure: as §2, §3

[7] = Absolute bioavailability, intravenous vs intragastric administration; assay type: in vivo; conditions: male SD rat, intragastric vs tail intravenous injection
Procedure: Animal: male SD rat Groups of the experiment: intravenous injection group and oral administration group, four rats being provided for each rat Administration manner: tail intravenous injection, intragastric administration Data processing: an area under a curve is calculated for intravenous injection and oral administration by using a trapezoidal method, and a bioavailability is calculated by using the following formula: […]

[8] = system: Caco-2 cell monolayer
Procedure: as §2, §3

Compound: Cc1nc(Nc2ncc(C(=O)Nc3c(C)cccc3Cl)s2)cc(N2CCN(CCOCCOCCOCCOCCOCCN3CCN(c4cc(Nc5ncc(C(=O)Nc6c(C)cccc6Cl)s5)nc(C)n4)CC3)CC2)n1 [DSTN-42, Double End-substituted Tetraethylene Glycol-dasatinib]
- Papp (*10^−6)A→B [1]: 4.57 ± 0.87 *10^−6 cm/s
- Papp (*10^−6)B→A [1]: 11.43 ± 0.72 *10^−6 cm/s
- Papp (B→A)/Papp (A→B) [1]: 2.50
- IC50 [2]: 50 nM
- Maximum inhibition rate [2]: 93.36%
- IC50 [3]: 0.5 nM
- Maximum inhibition rate [3]: 80.34%
- Maximum inhibition rate [4]: 30.97%
- IC50 [5]: 0.79 nM
- Maximum inhibition rate [5]: 96.91%

Compound: Cc1nc(Nc2ncc(C(=O)Nc3c(C)cccc3Cl)s2)cc(N2CCN(CCOCCOCCOCCOCCOCCOCCOCCN3CCN(c4cc(Nc5ncc(C(=O)Nc6c(C)cccc6Cl)s5)nc(C)n4)CC3)CC2)n1 [DSTN-62, Double Endhexaethylene Glycol-dasatinib]
- Papp (*10^−6)A→B [1]: 6.44 ± 0.11 *10^−6 cm/s
- Papp (*10^−6)B→A [1]: 15.01 ± 0.59 *10^−6 cm/s
- Papp (B→A)/Papp (A→B) [1]: 2.33
- IC50 [2]: 60 nM
- Maximum inhibition rate [2]: 81.47%
- IC50 [3]: 0.34 nM
- Maximum inhibition rate [3]: 81.76%
- Maximum inhibition rate [4]: 29.74%
- IC50 [5]: 0.49 nM
- Maximum inhibition rate [5]: 96.00%

Compound: CCN[C@H]1C[C@H](C)S(=O)(=O)c2sc(S(=O)(=O)NCCOCCOCCOCCOCCOCCOCCOCCOCCOCCOCCOCCNS(=O)(=O)c3cc4c(s3)S(=O)(=O)[C@@H](C)C[C@@H]4NCC)cc21 [DZA-03, Double End Substituted Odecylethyleneglycol-dorzolamide]
- Papp (*10^−6)A→B [1]: 8.96 ± 0.35 *10^−6 cm/s
- Papp (*10^−6)B→A [1]: 23.67 ± 0.45 *10^−6 cm/s
- Papp (B→A)/Papp (A→B) [1]: 2.64

Compound: CCN[C@H]1C[C@H](C)S(=O)(=O)c2sc(S(=O)(=O)NCCOCC(COCCNS(=O)(=O)c3cc4c(s3)S(=O)(=O)[C@@H](C)C[C@@H]4NCC)(COCCNS(=O)(=O)c3cc4c(s3)S(=O)(=O)[C@@H](C)C[C@@H]4NCC)COCCNS(=O)(=O)c3cc4c(s3)S(=O)(=O)[C@@H](C)C[C@@H]4C)cc21 [DZA-06, Four-Branch Ethyleneglycol-dorzolamide Conjugate]
- Papp A→B at 90 min [6]: 8.86 ± 0.51 ×10⁻⁶ cm/s
- Papp B→A at 90 min [6]: 18.1 ± 0.32 ×10⁻⁶ cm/s
- efflux ratio at 90 min [6]: 2.05

Compound: Double End Substituted Hexaethyleneglycol-dorzolamide [DZA-02]
- Papp (*10^−6)A→B [1]: 12.32 ± 0.34 *10^−6 cm/s
- Papp (*10^−6)B→A [1]: 25.50 ± 1.21 *10^−6 cm/s
- Papp (B→A)/Papp (A→B) [1]: 2.07

Compound: Single End Substituted Pentaethyleneglycol-dorzolamide [DZA-01]
- Papp (*10^−6)A→B [1]: 11.54 ± 0.36 *10^−6 cm/s
- Papp (*10^−6)B→A [1]: 15.50 ± 0.06 *10^−6 cm/s
- Papp (B→A)/Papp (A→B) [1]: 1.34

Next, values leading:

- bioavailability ([7]; blood, oral): 17%
- Papp A→B at 90 min [6]: 10.6 ± 0.36 ×10⁻⁶ cm/s
- Papp B→A at 90 min [6]: 15.5 ± 0.06 ×10⁻⁶ cm/s
- efflux ratio at 90 min [6]: 1.47
Compound: CN(C)CCc1c[nH]c2ccc(CS(=O)(=O)N(C)CCOCCOCCOCCOCCOCCN(C)S(=O)(=O)Cc3ccc4[nH]cc(CCN(C)C)c4c3)cc12 [SMQT-01, Double End-substituted Hexaethyleneglycol-sumatriptan]

- absolute bioavailability [7]: 23%
- Papp (*10^−6)A→B [8]: 9.87 ± 0.03 *10^−6 cm/s
- Papp (*10^−6)B→A [8]: 14.52 ± 0.12 *10^−6 cm/s
Compound: CN(C)CCc1c[nH]c2ccc(CS(=O)(=O)N(C)CCOCCOCCOCCOCCN(C)S(=O)(=O)Cc3ccc4[nH]cc(CCN(C)C)c4c3)cc12 [SMQT-02, Double End-substituted Pentaethyleneglycol-sumatriptan]

- absolute bioavailability [7]: 25%
- Papp (*10^−6)A→B [8]: 6.25 ± 0.51 *10^−6 cm/s
- Papp (*10^−6)B→A [8]: 11.06 ± 0.21 *10^−6 cm/s
Compound: CN(C)CCc1c[nH]c2ccc(CS(=O)(=O)N(C)CCOCCOCCN(C)S(=O)(=O)Cc3ccc4[nH]cc(CCN(C)C)c4c3)cc12 [SMQT-03, Double End-substituted Triethylene Glycol-sumatriptan]

— US10052392B2, “Low molecular weight polyethylene glycol drug conjugates having improved drug biological activity” (JENKEM TECHNOLOGY CO., LTD. (TIANJIN), priority 2013, dated 2018)
